Patent publication US10689377B2 (Mirati Therapeutics, Inc., priority 2017, dated 2020)

Target: KRas G12C (Homo sapiens, UniProt P01116, G12C)
Assay: Cellular inhibition of KRas G12C measured by Phospho-ERK in NCI-H358 cells
Type: cell-based
Details: pERK(Thr202/Tyr204) normalized with GAPDH, NCI-H358 cells, 3 hours; read-out: IC50
In short: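 NCI-H358 cells treated 3 h with compound (0.5% DMSO final), then fixed and methanol-permeabilised. In-cell immunofluorescence measured pERK(Thr202/Tyr204) normalised to GAPDH as percent of DMSO control. IC50 from a 4-parameter dose-response fit.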

Sequence of KRas G12C (P01116 1-188 isoform P01116-2 G12C): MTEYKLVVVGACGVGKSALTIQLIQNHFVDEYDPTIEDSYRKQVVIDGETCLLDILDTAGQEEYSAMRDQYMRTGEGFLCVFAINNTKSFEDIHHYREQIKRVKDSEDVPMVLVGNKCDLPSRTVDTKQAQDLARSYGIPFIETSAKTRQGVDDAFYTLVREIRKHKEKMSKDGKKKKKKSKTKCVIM

Row | IC50 | SMILES
1 | 0.1 to 1000 nM | C=CC(=O)N1CCN(c2nc(OC[C@@H]3CCCN3C)nc3c2CCN(c2ccc(F)c(C)c2C)C3)C[C@@H]1CC#N [Example 424, 2-((S)-1-acryloyl-4-(7-(4-fluoro-2,3-dimethylphenyl)-2-(((S)-1-methylpyrrolidin-2-yl)methoxy)-5,6,7,8-tetrahydropyrido[3,4-d]pyrimidin-4-yl)piperazin-2-yl)acetonitrile]
2 | 0.1 to 1000 nM | C=CC(=O)N1CCN(c2nc(OC[C@@H]3CCCN3C)nc3c2CCN(c2cccc(C)c2Cl)C3)C[C@@H]1CC#N [Example 425, 2-((S)-1-acryloyl-4-(7-(2-chloro-3-methylphenyl)-2-(((S)-1-methylpyrrolidin-2-yl)methoxy)-5,6,7,8-tetrahydropyrido[3,4-d]pyrimidin-4-yl)piperazin-2-yl)acetonitrile]
3 | 0.1 to 1000 nM | C=CC(=O)N1CCN(c2nc(OC[C@@H]3C[C@@H](O)CN3C)nc3c2CCN(c2cccc(Cl)c2C(F)(F)F)C3)C[C@@H]1CC#N [Example 426, 2-((S)-1-acryloyl-4-(7-(3-chloro-2-(trifluoromethyl)phenyl)-2-(((2S,4R)-4-hydroxy-1-methylpyrrolidin-2-yl)methoxy)-5,6,7,8-tetrahydropyrido[3,4-d]pyrimidin-4-yl)piperazin-2-yl)acetonitrile]
4 | 0.1 to 1000 nM | CN(C)C/C=C/C(=O)N1CCN(c2nc(OC[C@@H]3CCCN3C)nc3c2CCN(c2cccc(Cl)c2C(F)(F)F)C3)C[C@@H]1CC#N [Example 427]
5 | 0.1 to 1000 nM | C=CC(=O)N1CCN(c2nc(OC[C@@H]3CCCN3C)nc3c2CCN(c2cccc(Cl)c2C(F)(F)F)C3)C[C@@H]1CC#N [Example 428, 2-((S)-1-acryloyl-4-(7-(3-chloro-2-(trifluoromethyl)phenyl)-2-(((S)-1-methylpyrrolidin-2-yl)methoxy)-5,6,7,8-tetrahydropyrido[3,4-d]pyrimidin-4-yl)piperazin-2-yl)acetonitrile]
6 | > 1000 nM | C=CC(=O)N1CCN(c2nc(OC[C@@H]3CCCN3C)nc3c2CCN(c2cccc4ccccc24)C3)CC1COC (stereo partly drawn) [Example 429, 1-(2-(methoxymethyl)-4-(2-(((S)-1-methylpyrrolidin-2-yl)methoxy)-7-(naphthalen-1-yl)-5,6,7,8-tetrahydropyrido[3,4-d]pyrimidin-4-yl)piperazin-1-yl)prop-2-en-1-one]
7 | 0.1 to 1000 nM | C=CC(=O)N1CCN(c2nc(OC[C@@H]3CCCN3C)nc3c2CCN(c2cccc4ccncc24)C3)C[C@@H]1CC#N [Example 430]
8 | > 1000 nM | C=CC(=O)N1CCN(c2nc(OC[C@@H]3CCCN3C)nc3c2CCN(c2nncc4ccccc24)C3)C[C@@H]1CC#N [Example 431, 2-((S)-1-acryloyl-4-(2-(((S)-1-methylpyrrolidin-2-yl)methoxy)-7-(phthalazin-1-yl)-5,6,7,8-tetrahydropyrido[3,4-d]pyrimidin-4-yl)piperazin-2-yl)acetonitrile]
9 | 0.1 to 1000 nM | C=CC(=O)N1CCN(c2nc(OC[C@H]3CCCCN3C)nc3c2CCN(c2cccc4ccccc24)C3)C[C@@H]1CC#N [Example 432, 2-((S)-1-acryloyl-4-(2-(((R)-1-methylpiperidin-2-yl)methoxy)-7-(naphthalen-1-yl)-5,6,7,8-tetrahydropyrido[3,4-d]pyrimidin-4-yl)piperazin-2-yl)acetonitrile]

The remaining lines, values behind:

Row | SMILES | IC50
10 | C=CC(=O)N1CCN(c2nc(NC[C@@H]3CCCN3C)nc3c2CCN(c2cccc4ccccc24)C3)C[C@@H]1CC#N [Example 408, 2-((S)-1-acryloyl-4-(2-((((S)-1-methylpyrrolidin-2-yl)methyl)amino)-7-(naphthalen-1-yl)-5,6,7,8-tetrahydropyrido[3,4-d]pyrimidin-4-yl)piperazin-2-yl)acetonitrile] | > 1000 nM
11 | C=CC(=O)N1CCN(c2nc(OCCN3CCCCC3)nc3c2CCN(c2cccc4ccccc24)C3)C[C@@H]1CC#N [Example 409, (S)-2-(1-acryloyl-4-(7-(naphthalen-1-yl)-2-(2-(piperidin-1-yl)ethoxy)-5,6,7,8-tetrahydropyrido[3,4-d]pyrimidin-4-yl)piperazin-2-yl)acetonitrile] | 0.1 to 1000 nM
12 | C=CC(=O)N1CCN(c2nc(OC[C@@H]3CCN(C)C3)nc3c2CCN(c2cccc4ccccc24)C3)C[C@@H]1CC#N [Example 410, 2-((S)-1-acryloyl-4-(2-(((R)-1-methylpyrrolidin-3-yl)methoxy)-7-(naphthalen-1-yl)-5,6,7,8-tetrahydropyrido[3,4-d]pyrimidin-4-yl)piperazin-2-yl)acetonitrile] | 0.1 to 1000 nM
13 | C=CC(=O)N1CCN(c2nc(OC[C@@H]3CCCN3C)nc3c2CCN(c2cccc(F)c2C)C3)CC1CC#N (stereo partly drawn) [Example 411, 2-(1-acryloyl-4-(7-(3-fluoro-2-methylphenyl)-2-(((S)-1-methylpyrrolidin-2-yl)methoxy)-5,6,7,8-tetrahydropyrido[3,4-d]pyrimidin-4-yl)piperazin-2-yl)acetonitrile] | 0.1 to 1000 nM
14 | C=CC(=O)N1CCN(c2nc(OC[C@@H]3CCCN3C)nc3c2CCN(c2c(F)cccc2C(F)(F)F)C3)CC1CC#N (stereo partly shown) [Example 412] | 0.1 to 1000 nM
15 | C=CC(=O)N1CCN(c2nc(OC[C@@H]3CCCN3C)nc3c2CCN(c2ccc(F)cc2C(F)(F)F)C3)CC1CC#N (stereo partly drawn) [Example 413, 2-(1-acryloyl-4-(7-(4-fluoro-2-(trifluoromethyl)phenyl)-2-(((S)-1-methylpyrrolidin-2-yl)methoxy)-5,6,7,8-tetrahydropyrido[3,4-d]pyrimidin-4-yl)piperazin-2-yl)acetonitrile] | 0.1 to 1000 nM
16 | C=CC(=O)N1CCN(c2nc(OC[C@@H]3CCCN3C)nc3c2CCN(c2cccc(Cl)c2C(F)(F)F)C3)CC1CC#N (stereo partly drawn) [Example 414, 2-(1-acryloyl-4-(7-(3-chloro-2-(trifluoromethyl)phenyl)-2-(((S)-1-methylpyrrolidin-2-yl)methoxy)-5,6,7,8-tetrahydropyrido[3,4-d]pyrimidin-4-yl)piperazin-2-yl)acetonitrile] | 0.1 to 1000 nM
17 | C=CC(=O)N1CCN(c2nc(OC[C@H]3C[C@H](O)CN3C)nc3c2CCN(c2cccc(F)c2C(F)(F)F)C3)CC1CC#N (stereo partly drawn) [Example 415, 2-(1-acryloyl-4-(7-(3-fluoro-2-(trifluoromethyl)phenyl)-2-(((2R,4S)-4-hydroxy-1-methylpyrrolidin-2-yl)methoxy)-5,6,7,8-tetrahydropyrido[3,4-d]pyrimidin-4-yl)piperazin-2-yl)acetonitrile] | 0.1 to 1000 nM
18 | C=CC(=O)N1CCN(c2nc(OC[C@H]3C[C@@H](O)CN3C)nc3c2CCN(c2cccc(F)c2C(F)(F)F)C3)CC1CC#N (stereo partly drawn) [Example 416, 2-(1-acryloyl-4-(7-(3-fluoro-2-(trifluoromethyl)phenyl)-2-(((2R,4R)-4-hydroxy-1-methylpyrrolidin-2-yl)methoxy)-5,6,7,8-tetrahydropyrido[3,4-d]pyrimidin-4-yl)piperazin-2-yl)acetonitrile] | 0.1 to 1000 nM
19 | C=CC(=O)N1CCN(c2nc(OC[C@H]3C[C@H](F)CN3C)nc3c2CCN(c2cccc(F)c2C(F)(F)F)C3)CC1CC#N (stereo partly drawn) [Example 417, 2-(1-acryloyl-4-(2-(((2R,4S)-4-fluoro-1-methylpyrrolidin-2-yl)methoxy)-7-(3-fluoro-2-(trifluoromethyl)phenyl)-5,6,7,8-tetrahydropyrido[3,4-d]pyrimidin-4-yl)piperazin-2-yl)acetonitrile] | 0.1 to 1000 nM
20 | C=CC(=O)N1CCN(c2nc(OC[C@@]3(C)CCCN3C)nc3c2CCN(c2cccc(F)c2C(F)(F)F)C3)CC1CC#N (stereo partly drawn) [Example 418, 2-(1-acryloyl-4-(2-(((R)-1,2-dimethylpyrrolidin-2-yl)methoxy)-7-(3-fluoro-2-(trifluoromethyl)phenyl)-5,6,7,8-tetrahydropyrido[3,4-d]pyrimidin-4-yl)piperazin-2-yl)acetonitrile] | 0.1 to 1000 nM
21 | C=CC(=O)N1CCN(c2nc(OC[C@@H]3C[C@H](O)CN3C)nc3c2CCN(c2cccc4ccccc24)C3)CC1CC#N (stereo partly drawn) [Example 419, 2-(1-acryloyl-4-(2-(((2S,4S)-4-hydroxy-1-methylpyrrolidin-2-yl)methoxy)-7-(naphthalen-1-yl)-5,6,7,8-tetrahydropyrido[3,4-d]pyrimidin-4-yl)piperazin-2-yl)acetonitrile] | 0.1 to 1000 nM
22 | C=CC(=O)N1CCN(c2nc(OC[C@@H]3CCCN3C)nc3c2CCN(c2cccc(Cl)c2C)C3)C[C@@H]1CC#N [Example 420, 2-((S)-1-acryloyl-4-(7-(3-chloro-2-methylphenyl)-2-(((S)-1-methylpyrrolidin-2-yl)methoxy)-5,6,7,8-tetrahydropyrido[3,4-d]pyrimidin-4-yl)piperazin-2-yl)acetonitrile] | 0.1 to 1000 nM
23 | C=CC(=O)N1CCN(c2nc(OC[C@@H]3CCCN3C)nc3c2CCN(c2cccc(Cl)c2Cl)C3)C[C@@H]1CC#N [Example 421, 2-((S)-1-acryloyl-4-(7-(2,3-dichlorophenyl)-2-(((S)-1-methylpyrrolidin-2-yl)methoxy)-5,6,7,8-tetrahydropyrido[3,4-d]pyrimidin-4-yl)piperazin-2-yl)acetonitrile] | 0.1 to 1000 nM
24 | C=CC(=O)N1CCN(c2nc(OC[C@@H]3CCCN3C)nc3c2CCN(c2cccc(Cl)c2OC)C3)C[C@@H]1CC#N [Example 422, 2-((S)-1-acryloyl-4-(7-(3-chloro-2-methoxyphenyl)-2-(((S)-1-methylpyrrolidin-2-yl)methoxy)-5,6,7,8-tetrahydropyrido[3,4-d]pyrimidin-4-yl)piperazin-2-yl)acetonitrile] | 0.1 to 1000 nM
25 | CN(C)C/C=C/C(=O)N1CCN(c2nc(OC[C@H]3CCCN3C)nc3c2CCN(c2cccc(Cl)c2C(F)(F)F)C3)C[C@@H]1CC#N [Example 423, 2-((S)-4-(7-(3-chloro-2-(trifluoromethyl)phenyl)-2-(((R)-1-methylpyrrolidin-2-yl)methoxy)-5,6,7,8-tetrahydropyrido[3,4-d]pyrimidin-4-yl)-1-((E)-4-(dimethylamino)but-2-enoyl)piperazin-2-yl)acetonitrile] | 0.1 to 1000 nM
